According to patent US20250302051A1, “COMPOSITIONS WITH NANOPLATELET OXIDES OR HYDROXIDES AND METHODS OF PREPARING AND USING SAME” (Aqua Resources Corporation, priority 2024, published 2025):

How the values were obtained:
B. cereus (ATCC 14579) = test: Nanoplatelet composition vs antibiotic parallel test, B. cereus; type: cell-based
MRSA (S. aureus) = test: Nanoplatelet composition vs antibiotic parallel test, MRSA; type: cell-based, Staphylococcus aureus
Protocol: The nanoplatelet composition achieved total mitigation of MRSA from a 7 log pathogen population (10 million bacteria per mL) to zero in 3 hours. Levoflaxin, a commonly administered antibiotic used for treating MRSA, was tested at clinical doses and is shown as the dashed line. At various concentrations, the nanoplatelet composition eliminated MRSA more completely than levoflaxin after 24 hours with no rebound.

S. aureus (VISA) = test: Nanoplatelet composition vs antibiotic parallel test, VISA; type: cell-based
CRE (K. pneumoniae) = test: Nanoplatelet composition vs antibiotic parallel test, CRE K. pneumoniae; type: cell-based
CRE (E. coli) = test: Nanoplatelet composition vs antibiotic parallel test, CRE E. coli; type: cell-based; details: within 24 hours; colistin 2 μg/mL; FIG. 8

O=C(O)c1cn(C2CC2)c2cc(N3CCNCC3)c(F)cc2c1=O [Cyproflaxin]
Log Kill (B. cereus (ATCC 14579)): 0.5 Log

C[C@H]1COc2c(N3CCN(C)CC3)c(F)cc3c(=O)c(C(=O)O)cn1c23 [Levoflaxin]
Log Kill (MRSA (S. aureus)): 4.5 Log

CC(=O)NC[C@H]1CN(c2ccc(N3CCOCC3)c(F)c2)C(=O)O1 [Linezolid]
Log Kill (S. aureus (VISA)): 0.5 Log

CN(C)c1cc(NC(=O)CNC(C)(C)C)c(O)c2c1C[C@H]1C[C@H]3[C@H](N(C)C)C(O)=C(C(N)=O)C(=O)[C@@]3(O)C(O)=C1C2=O [Tigecycline]
Log Kill (CRE (K. pneumoniae)): 8 Log | Time to Zero (CRE (K. pneumoniae)): 24 h

Colistin
rebound of bacteria population (CRE (E. coli)): completely rebounded
